Measurements reported in patent publication US20250230193A1, “CYCLIC COMPOUND HAVING SELECTIVE KRAS INHIBITORY EFFECT ON HRAS AND NRAS” (CHUGAI SEIYAKU KABUSHIKI KAISHA, priority 2022, published 2025).

What was measured:
[1] = target: GDP-bound HRAS wild-type protein (Homo sapiens, UniProt P01112); assay: Binding to HRAS by surface plasmon resonance (SPR), Single Cycle Kinetics; conditions: KD ratio, GDP-bound HRAS wild-type vs GDP-bound KRAS wild-type, SPR
[2] = target: GDP-bound NRAS wild-type protein (Homo sapiens, UniProt P01111); assay: Binding to NRAS by surface plasmon resonance (SPR), Single Cycle Kinetics; conditions: KD ratio, GDP-bound NRAS wild-type vs GDP-bound KRAS wild-type, SPR
GDP-bound NRAS wild-type protein, sequence (P01111 whole entry): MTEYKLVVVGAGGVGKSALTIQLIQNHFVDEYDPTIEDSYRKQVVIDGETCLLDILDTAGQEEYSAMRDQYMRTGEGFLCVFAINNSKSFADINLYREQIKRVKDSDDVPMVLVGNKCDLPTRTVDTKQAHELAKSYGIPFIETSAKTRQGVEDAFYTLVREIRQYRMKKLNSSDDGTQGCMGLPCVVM

GDP-bound HRAS wild-type protein, sequence (P01112 whole entry): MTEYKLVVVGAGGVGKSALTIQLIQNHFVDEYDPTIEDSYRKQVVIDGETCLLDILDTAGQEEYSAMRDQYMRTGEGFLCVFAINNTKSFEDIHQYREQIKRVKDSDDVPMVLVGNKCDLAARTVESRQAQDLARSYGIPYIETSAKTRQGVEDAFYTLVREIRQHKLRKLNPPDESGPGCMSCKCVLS

Row | Compound | HRAS/KRAS (ratio of KD value with respect to HRAS to KD value with respect to KRAS) [1] | NRAS/KRAS (ratio of KD value with respect to NRAS to KD value with respect to KRAS) [2]
1 | CC[C@H](C)[C@@H]1NC(=O)[C@H](CC)N(C)C(=O)C[C@@H](C(=O)N(C)C)N(C)C(=O)[C@H](C2CCCC2)N(C)C(=O)C2(CCC2)NC(=O)[C@H](C)N(C)C(=O)[C@H](CCc2cc(F)c(C(F)(F)F)c(F)c2)NC(=O)CN(C)C(=O)[C@H](Cc2ccc(C(F)(F)F)cc2)N2CC/C=C\C[C@@H](C2=O)N(C)C(=O)CN(C)C1=O [PP1146] | B (a compound having 3 or more and less than 10 is denoted as B) | A (a compound having 10 or more and less than 20 is denoted as A)
2 | CC[C@H](C)[C@@H]1NC(=O)[C@H](CC)N(C)C(=O)C[C@@H](C(=O)N(C)C)N(C)C(=O)[C@H](C2CCCC2)N(C)C(=O)C2(CCC2)NC(=O)[C@H](COCCC(C)C)N(C)C(=O)[C@H](CCc2cc(F)c(C(F)(F)F)c(F)c2)NC(=O)CN(C)C(=O)[C@H](Cc2ccc(C(F)(F)F)cc2)N2CC/C=C\C[C@@H](C2=O)N(C)C(=O)CN(C)C1=O [PP1148] | A (a compound having 10 or more and less than 20 is denoted as A) | A (a compound having 10 or more and less than 20 is denoted as A)
3 | CC[C@H](C)[C@@H]1NC(=O)[C@H](CC)N(C)C(=O)C[C@@H](C(=O)N(C)C)N(C)C(=O)[C@H](C2CCCC2)N(C)C(=O)C2(CCC2)NC(=O)[C@H](CC2CCCCC2)N(C)C(=O)[C@H](CCc2cc(F)c(C(F)(F)F)c(F)c2)NC(=O)CN(C)C(=O)[C@H](Cc2ccc(C(F)(F)F)cc2)N2CC/C=C\C[C@@H](C2=O)N(C)C(=O)CN(C)C1=O [PP1149] | A (a compound having 10 or more and less than 20 is denoted as A) | A (a compound having 10 or more and less than 20 is denoted as A)
4 | CCCC[C@H]1C(=O)NC2(CCC2)C(=O)N(C)[C@@H](C2CCCC2)C(=O)N(C)[C@H](C(=O)N(C)C)CC(=O)N(C)[C@@H](CC)C(=O)N[C@@H]([C@@H](C)CC)C(=O)N(C)CC(=O)N(C)[C@H]2C/C=C\CCN(C2=O)[C@@H](Cc2ccc(C(F)(F)F)cc2)C(=O)N(C)CC(=O)N[C@@H](CCc2cc(F)c(C(F)(F)F)c(F)c2)C(=O)N1C [PP1150] | A (a compound having 10 or more and less than 20 is denoted as A) | AA (a compound having 20 or more is denoted as AA)
5 | CC[C@H](C)[C@@H]1NC(=O)[C@H](CC(C)C)N(C)C(=O)C[C@@H](C(=O)N2C[C@@H](C)O[C@@H](C)C2)N(C)C(=O)[C@H](C2CCCC2)N(C)C(=O)C2(CCCC2)NC(=O)[C@@H]2CCCN2C(=O)[C@H](CCc2ccc(C(F)(F)F)c(Cl)c2)NC(=O)CN(C)C(=O)[C@H](Cc2ccc(F)cc2)N2CCCCC[C@@H](C2=O)N(C)C(=O)CN(C)C1=O [PP1151] | B (a compound having 3 or more and less than 10 is denoted as B) | B (a compound having 3 or more and less than 10 is denoted as B)
6 | CCO[C@@H]1C[C@H]2C(=O)NC3(CCC3)C(=O)N(C)[C@@H](C3CCCC3)C(=O)N(C)[C@H](C(=O)N3C[C@@H](C)O[C@@H](C)C3)CC(=O)N(C)[C@@H](CC(C)C)C(=O)N[C@@H]([C@@H](C)CC)C(=O)N(C)CC(=O)N(C)[C@H]3CCCCCN(C3=O)[C@@H](Cc3ccc(F)cc3)C(=O)N(C)CC(=O)N[C@@H](CCc3ccc(C(F)(F)F)c(Cl)c3)C(=O)N2C1 [PP1153] | B (a compound having 3 or more and less than 10 is denoted as B) | B (a compound having 3 or more and less than 10 is denoted as B)
7 | CCO[C@@H]1C[C@H]2C(=O)NC3(CCC3)C(=O)N(C)[C@@H](C3CCCC3)C(=O)N(C)[C@H](C(=O)N(C)C)CC(=O)N(C)[C@@H](Cc3ccccc3C#N)C(=O)N[C@@H]([C@@H](C)CC)C(=O)N(C)CC(=O)N(C)[C@H]3CCCCCN(C3=O)[C@@H](Cc3ccc(F)cc3)C(=O)N(C)CC(=O)N[C@@H](CCc3cc(F)c(C(F)(F)F)c(F)c3)C(=O)N2C1 [PP1155] | B (a compound having 3 or more and less than 10 is denoted as B) | B (a compound having 3 or more and less than 10 is denoted as B)
8 | CCO[C@@H]1C[C@H]2C(=O)NC3(CCC3)C(=O)N(C)[C@@H](C3CCCC3)C(=O)N(C)[C@H](C(=O)N(C)C)CC(=O)N(C)[C@@H](Cc3cccc(C#N)c3)C(=O)N[C@@H]([C@@H](C)CC)C(=O)N(C)CC(=O)N(C)[C@H]3CCCCCN(C3=O)[C@@H](Cc3ccc(F)cc3)C(=O)N(C)CC(=O)N[C@@H](CCc3cc(F)c(C(F)(F)F)c(F)c3)C(=O)N2C1 [PP1156] | B (a compound having 3 or more and less than 10 is denoted as B) | B (a compound having 3 or more and less than 10 is denoted as B)
9 | CCO[C@@H]1C[C@H]2C(=O)NC3(CCC3)C(=O)N(C)[C@@H](C3CCCC3)C(=O)N(C)[C@H](C(=O)N(C)C)CC(=O)N(C)[C@@H](Cc3ccc(C#N)cc3)C(=O)N[C@@H]([C@@H](C)CC)C(=O)N(C)CC(=O)N(C)[C@H]3CCCCCN(C3=O)[C@@H](Cc3ccc(F)cc3)C(=O)N(C)CC(=O)N[C@@H](CCc3cc(F)c(C(F)(F)F)c(F)c3)C(=O)N2C1 [PP1157] | B (a compound having 3 or more and less than 10 is denoted as B) | B (a compound having 3 or more and less than 10 is denoted as B)
10 | CCO[C@@H]1C[C@H]2C(=O)NC3(CCC3)C(=O)N(C)[C@@H](C3CCCC3)C(=O)N(C)[C@H](C(=O)N(C)C)CC(=O)N(C)[C@@H](Cc3ccc(Cl)c(Cl)c3)C(=O)N[C@@H]([C@@H](C)CC)C(=O)N(C)CC(=O)N(C)[C@H]3CCCCCN(C3=O)[C@@H](Cc3ccc(F)cc3)C(=O)N(C)CC(=O)N[C@@H](CCc3cc(F)c(C(F)(F)F)c(F)c3)C(=O)N2C1 [PP1158] | B (a compound having 3 or more and less than 10 is denoted as B) | B (a compound having 3 or more and less than 10 is denoted as B)
11 | CCCO[C@@H]1C[C@H]2C(=O)NC3(CCC3)C(=O)N(C)[C@@H](C3CCCC3)C(=O)N(C)[C@H](C(=O)N3CCOCC3)CC(=O)N(C)[C@@H](CC(C)C)C(=O)N[C@@H]([C@@H](C)CC)C(=O)N(C)CC(=O)N(C)[C@H]3CCCCN(C3=O)[C@@H](Cc3ccc(C(F)(F)F)cc3)C(=O)N(C)CC(=O)N[C@@H](CCc3cc(F)c(C(F)(F)F)c(F)c3)C(=O)N2C1 [PP1159] | B (a compound having 3 or more and less than 10 is denoted as B) | C (A compound having a KD ratio of 0.1 or more and less than 3 is denoted as C)
12 | CC[C@H](C)[C@@H]1NC(=O)[C@H](CC(C)C)N(C)C(=O)C[C@@H](C(=O)N2CCOCC2)N(C)C(=O)[C@H](C2CCCC2)N(C)C(=O)C2(CCC2)NC(=O)[C@@H]2C[C@@H](OCC(C)C)CN2C(=O)[C@H](CCc2cc(F)c(C(F)(F)F)c(F)c2)NC(=O)CN(C)C(=O)[C@H](Cc2ccc(C(F)(F)F)cc2)N2CCCC[C@@H](C2=O)N(C)C(=O)CN(C)C1=O [PP1160] | B (a compound having 3 or more and less than 10 is denoted as B) | B (a compound having 3 or more and less than 10 is denoted as B)
